Data on two molecules can be found in US7060716B2, “Tryptase inhibitors” (Altana Pharma AG, priority 2001, dated 2006).

This assay deals with T1, human tryptase (Homo sapiens, UniProt P20231).
T1 construct: from tissue
In words: Inhibition of human tryptase (apparent dissociation constant Kiapp, chromogenic substrate tos-Gly-Pro-Arg-pNA). It counts as biochemical. The settings on record: apparent dissociation constant in the presence of substrate; heparin 0.1–50 μg/ml; equilibrium conditions; read-out: Klapp. The source says: The documented pathophysiological effects of mast cell tryptase are caused directly by the enzymatic activity of the protease. Accordingly, they are reduced or blocked by inhibitors which inhibit the enzymatic activity of the tryptase. A suitable measure for the affinity of a reversible inhibitor to the target protease is the equilibrium dissociation constant Ki of the enzyme-inhibitor complex. This Ki value can be determined via the effect of the inhibitor on the tryptase-induced cleavage of a chromogenic peptide-p-nitroanilide substrate or a fluorogenic peptide-aminomethylcoumarin substrate.
The dissociation constants for the tryptase-inhibitor complexes are determined under equilibrium conditions in accordance with the general proposals of Bieth (Bieth J G, Pathophysiological Interpretation of kinetic constants of protease inhibitors, Bull. Europ. Physiopath. Resp. 16:183–195, 1980) and the methods of Sommerhoff et al. (Sommerhoff C P et al., A Kazal-type inhibitor of human mast cell tryptase: Isolation from the medical leech Hirudo medicinalis, characterization, and sequence analysis, Biol. Chem. Hoppe-Seyler 375: 685–694, 1994).
Human tryptase is isolated from lung tissue or prepared recombinantly; the specific activity of the protease, determined by titration, is usually greater than 85% of the theoretical value. […]

Each structure is given as a SMILES string. Counter-ions that a name gives are not always drawn.

T1 sequence (P20231 31-275): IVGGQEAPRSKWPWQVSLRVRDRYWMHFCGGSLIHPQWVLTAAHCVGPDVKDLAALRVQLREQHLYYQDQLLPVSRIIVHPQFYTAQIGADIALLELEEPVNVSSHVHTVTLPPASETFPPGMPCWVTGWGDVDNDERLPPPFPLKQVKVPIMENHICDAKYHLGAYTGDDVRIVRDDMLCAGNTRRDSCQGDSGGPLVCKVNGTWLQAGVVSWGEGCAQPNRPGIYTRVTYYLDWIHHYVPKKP

As for `NCc1cccc(CNC(=O)OCC#Cc2cccc(C#CCOC(=O)NCc3cccc(CN)c3)n2)c1` [Compound 1, 2,6-Bis-[3-(3-aminomethylbenzylaminocarbonyloxy)prop-1-ynyl]pyridine trihydrochloride], the Ki came out at 2.6 nM.
Take `NCc1ccc(CNC(=O)OCC#Cc2cccc(C#CCOC(=O)NCc3ccc(CN)cc3)n2)cc1` [Compound 2, 2,6-Bis-[3-(4-aminomethylbenzylaminocarbonyloxy)prop-1-ynyl]pyridine trihydrochloride]: the Ki worked out at 6 nM.
